The values that follow are results of earlier work, collected in patent US20050142185A1, “Softgel formulations of bisphosphonates bone resorption inhibitors” (priority 2003, published 2005).

For data set [1] the following is noted: taken either concurrently with or 2 hours after breakfast.
The conditions of data set [2]: marketed tablet not taken with enough water, or patient not upright for about one-half hour after taking.

Take `NCCCC(O)(P(=O)(O)O)P(=O)(O)O` [alendronate, 4-amino-1-hydroxybutylidene-1,1-biphosphonic acid]: in data set [1], the impairment of availability is greater than 85%. The side effects reported entry in data set [2] is “esophageal irritation and erosion”.
